Source: patent US10047067B2, “Composition for treating kidney disease comprising pyrazole derivative” (Ewha University-Industry Collaboration Foundation, priority 2012, dated 2018)
Entries after “also recorded” stand apart in the source; their conditions may differ.

What was measured:
C57BL/6J mice = experiment: Collagen accumulation (Masson's trichrome, picrosirius red) and macrophage marker F4/80 immunohistochemical staining of renal tissue; format: in vivo; details: treatment group vs diabetes group, 10 mg/kg/day oral, 12 weeks; listed as Example 1, 10 mg/kg/day
Description: Immunohistochemical staining was performed as previously disclosed (Noh H, Kim J S, Han K-H, Lee G T, Song J S, Chung S H, Jeon J S, Ha H, Lee H B: Oxidative stress during peritoneal dialysis: implications in functional and structural changes in the membrane. Kidney Int. 69: 2022-2028, 2006).
Briefly, as described in Example 11, diabetes was induced in mice that were then treated with 1-(pyridin-2-yl)-3-phenyl-4-propyl-1H-pyrazol-5-ol.HCl, the compound of Example 1, and scarified 12 weeks later. After cardiac perfusion with 0.1 M PBS (phosphate-buffered saline), tissue fixation was performed overnight with 2% PLP (paraformaldehyde-lysine-periodate). Paraffin embedding was conducted by sequential treatment with: 70% ethanol for 1 hr; 80% ethanol for 1 hr; 90% ethanol for 1 hr; 95% ethanol for 1 hr, twice; 100% ethanol for 1 hr, three times; xylene for 30 min, twice; paraffin for 30 min; and paraffin for 1.5 hrs. The paraffin tissue was sliced into a section 4 μm thick, followed by deparaffinization with alcohol. In order to enhance antibody penetration thereinto, the renal tissue was immersed in 10 mM citrate buffer (pH 6.0), heated with microwaves (at 700 watts for 5 min and then at 100 watts for 5 min), and then finally incubated at room temperature for 30 min Intrinsic peroxidase was removed by treatment with peroxidase blocking reagent (Peroxidase Blocking Reagent Ready-To-Use, Dakocytomation) for 30 min. Subsequently, the renal tissue was incubated with a protein block serum-free solution (Protein Blocking Serum-Free Ready-To-Use, Dakocytomation) for 15 min and then overnight with a primary antibody (F4/80, Santa Cruz) at 4° C., followed by amplification with ABC kit (Santa Cruz) using the ABC (avidin-biotin-enzyme complex) method. […]
To examine tissue injury, staining was performed with Masson's trichrome (Sigma-Aldrich) and picrosirius red (Sigma-Aldrich) according to the manufacturer's instructions. The degree of tissue injury was expressed as tubulointerstitial collagen accumulation per area. […]

[1] = test system: collagen Iα1 expression in proximal tubular cells (mProx24); experiment: Inhibitory effect on collagen Iα1 expression in proximal tubular cells (hTGF-β1 stimulated, real-time PCR); format: cell-based; details: Mus musculus
Description: mProx24, which is a name of the proximal tubular cells derived from proximal tubule segments obtained by finely sectioning the kidney of adult C57BL6/J mice, was granted from Professor Sugaya, St. Marianna University School of Medicine, Kanagawa, Japan. mProx24 was cultured in DMEM (Dulbecco's modified Eagle's medium) supplemented with 10% fetal calf serum (FCS, Gibco), 100 U/ml penicillin, 100 μg/ml streptomycin, and 44 mM NaHCO3 at 37° C. in a 5% CO2 atmosphere. For quantitation of RNA expression, the cells were cultured in 6-well plates. When the cells grew 90% confluent, the medium was changed with a fresh 0.15% FCS (Gibco)-supplemented DMEM. Incubation in this medium for 24 hrs halted the cell growth to synchronize the growth cycle in the cells. Compounds of Examples 1 to 9 and Comparative Example were respectively dissolved in DMSO (dimethylsulfoxide) to form a concentration of 50 mM, and subjected to serial dilution to 10 mM, 1 mM, 0.1 mM, and 0.01 mM. 10 mM, 1 mM, 0.1 mM, and 0.01 mM solutions of each of the compounds of Examples 1 to 9 and Comparative Example were 1,000-fold diluted in 0.15% FCS (Gibco)-supplemented DMEM to form final concentrations of 10 μM, 1 μM, 0.1 μM, and 0.01 μM, respectively. In addition, 0 μM (DMSO 1 μL) was used. The cells were incubated for 1 hr in the dilutions and then for 6 hrs in the presence of 5 ng/ml recombinant human transforming growth factor-β1 (hTGF-β1, R&D Systems). For the control, hTGF-β1 was not used. Total RNA was extracted from mProx24 using Trizol (Invitrogen). For quantitation of mRNA expression, a reaction volume of 20 μL including cDNA transcripts, primer pairs, and SYBR Green PCR Master Mix (Applied Biosystems) was subjected to real-time PCR with the aid of StepOnePlus (Applied Biosystems) (real-time PCR condition: 95° C., 10 min→40 thermal cycles of denaturation at 95° C. for 15 sec and primer annealing at 60° C. for 1 min→95° C. for 15 sec, 60° C. for 1 min, and 95° C. for 15 sec to measure a melting curve). Quantitation was normalized to 18S rRNA expression level. A pair of primers for mouse collagen Iα1 were 5′-[…]-3′(SEQ ID NO: 13) and 5′-[…]-3′ (SEQ ID NO: 14). Forward and reverse primers for mouse r18S rRNA were 5′-CGAAAGCATTTGCCAAGAAT-3′ (SEQ ID NO: 11) and 5′-AGTCGGCATCGTTTATGGTC-3′ (SEQ ID NO: 12), respectively.
Experiment results are given in Tables 3 to 12 and FIGS. 4 to 13. Tables 3 to 12 and FIGS. 4 to 13 show inhibitory effects of the compounds of Examples 1 to 9 and Comparative Example 1 on collagen Iα1 expression in proximal tubular cells.
Data of Tables 3 to 12 and FIGS. 4 to 13 are measurements of experiments repeated three to five times for each concentration, and are expressed as mean±standard error (SE). Statistic comparison among the groups was analyzed by ANOVA and Fisher's least significant difference test, with significance at p<0.05. *P<0.05 vs. WT, †P<0.05 vs. DM.
In Tables 3 to 12, mean values of expression level ratios of collagen Iα1 (Col1α) to 18S rRNA (18S), and % inhibition against collagen Iα1 expression for each group are shown, together with IC50 value (μM). In this regard, % inhibition means relative inhibition to 100% for the control and 0% for the group that was treated with hTGF-β1 but not with any of the compounds of Examples or Comparative Example.

- IC50 ([1]; mProx24, hTGF-β1 stimulated, read-out: IC50 (inhibition of collagen Iα1 expression)): 742 nM
Compound: CCCc1c(-c2ccccc2)nn(-c2ccccn2)c1O.Cl [Compound 18-278, 1-(pyridin-2-yl)-3-phenyl-4-propyl-1H-pyrazol-5-ol.HCl]
- collagen accumulation, Masson's trichrome staining (blue area) (C57BL/6J mice): in a smaller area than was the diabetes group; also recorded: significantly reduced
- collagen accumulation, picrosirius red staining (red area) (C57BL/6J mice): a smaller area; also recorded: significantly reduced
- macrophage production, immunohistochemical staining (F4/80) (C57BL/6J mice): in a smaller area than was the diabetes group; also recorded: significantly reduced
- mrna remaining at 0.01 µM ([1]; Col1, 0.01 μM compound, mProx24, 5 ng/ml hTGF-β1 6 hrs, relative to hTGF-β1 alone = 1, read-out: Mean expression level ratio of collagen Iα1 (Col1α) to 18S rRNA): 82.1%
- mrna remaining at 0.1 µM ([1]; Col1, 0.1 μM compound, mProx24, 5 ng/ml hTGF-β1 6 hrs, relative to hTGF-β1 alone = 1, read-out: Mean expression level ratio of collagen Iα1 (Col1α) to 18S rRNA): 70.1%
- mrna remaining at 1 µM ([1]; Col1, 1 μM compound, mProx24, 5 ng/ml hTGF-β1 6 hrs, relative to hTGF-β1 alone = 1, read-out: Mean expression level ratio of collagen Iα1 (Col1α) to 18S rRNA): 51.6%
- mrna remaining at 10 µM ([1]; Col1, 10 μM compound, mProx24, 5 ng/ml hTGF-β1 6 hrs, relative to hTGF-β1 alone = 1, read-out: Mean expression level ratio of collagen Iα1 (Col1α) to 18S rRNA): 36.9%
- inhibition at 0.01 µM ([1]; 0.01 μM compound, mProx24, 100% = control without hTGF-β1, 0% = hTGF-β1 alone, read-out: expression inhibition rate (collagen Iα1)): 20%
- inhibition at 0.1 µM ([1]; 0.1 μM compound, mProx24, 100% = control without hTGF-β1, 0% = hTGF-β1 alone, read-out: expression inhibition rate (collagen Iα1)): 33.5%
- inhibition at 1 µM ([1]; 1 μM compound, mProx24, 100% = control without hTGF-β1, 0% = hTGF-β1 alone, read-out: expression inhibition rate (collagen Iα1)): 54.2%
- inhibition at 10 µM ([1]; 10 μM compound, mProx24, 100% = control without hTGF-β1, 0% = hTGF-β1 alone, read-out: expression inhibition rate (collagen Iα1)): 70.7%
